Source: ChEMBL document CHEMBL5154831 (J Med Chem, 2022)
pKi: −log10 of the molar value. ≈ marks a conversion by molar mass, not a printed value.

Assays:
[1] = Elimination rate constant in C57BL/6 mouse at 2 mg/kg, sc by LC-MS analysis; assay type: ADME, organism-based; details: in vivo
[2] = Half life in C57BL/6 mouse at 2 mg/kg, sc by LC-MS analysis; assay type: ADME, organism-based; details: in vivo
[3] = Tmax in C57BL/6 mouse at 2 mg/kg, sc by LC-MS analysis; assay type: ADME, organism-based; details: in vivo
[4] = Equilibrium solubility of compound in water incubated for 24 hrs by UV-spectroscopy method; assay type: physicochemical
[5] = Toxicity in wild type mouse assessed as effect on body weight; details: in vivo
[6] = AUC (0 to t) in C57BL/6 mouse at 2 mg/kg, sc by LC-MS analysis; assay type: ADME, organism-based; parameters: dose 2 mg/kg, route sc; details: in vivo
[7] = target: Vasopressin V2 receptor (Rattus norvegicus) (UniProt Q00788); test: Ex vivo receptor occupancy at V2R in isolated perfused Sprague-Dawley rat kidney assessed as dissociation half life at 0.1 uM incubated for 30 mins by LC-MS analysis; assay type: functional, tissue-based
Sequence of Vasopressin V2 receptor (Rattus norvegicus) (Q00788 whole entry, the tested form may be a part): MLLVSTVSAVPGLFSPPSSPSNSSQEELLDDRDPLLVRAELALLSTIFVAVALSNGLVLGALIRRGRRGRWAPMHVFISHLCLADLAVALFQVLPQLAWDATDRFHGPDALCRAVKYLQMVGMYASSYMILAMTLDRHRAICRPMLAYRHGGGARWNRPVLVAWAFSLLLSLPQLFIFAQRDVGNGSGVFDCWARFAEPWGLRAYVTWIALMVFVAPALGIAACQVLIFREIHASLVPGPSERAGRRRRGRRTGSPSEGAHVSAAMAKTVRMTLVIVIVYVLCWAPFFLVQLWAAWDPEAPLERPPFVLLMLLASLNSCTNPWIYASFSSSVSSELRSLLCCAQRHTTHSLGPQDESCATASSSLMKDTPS

[8] = Cmax in C57BL/6 mouse at 2 mg/kg, sc by LC-MS analysis; assay type: ADME, organism-based; parameters: dose 2 mg/kg, route sc; details: in vivo
[9] = Toxicity in wild type mouse assessed as effect on kidney size; details: in vivo
[10] = Toxicity in wild type mouse assessed as effect on body weight at 2 mg/kg; assay type: organism-based; details: in vivo
Vasopressin V2 receptor = Vasopressin V2 receptor (Homo sapiens, UniProt P30518); test: Displacement of conivaptan-red from SNAP-tagged V2 receptor (unknown origin) expressed in HEK293 cells assessed as inhibition constant measured after 2 hrs by HTRF assay; assay type: cell-based
Sequence of Vasopressin V2 receptor (P30518 whole entry): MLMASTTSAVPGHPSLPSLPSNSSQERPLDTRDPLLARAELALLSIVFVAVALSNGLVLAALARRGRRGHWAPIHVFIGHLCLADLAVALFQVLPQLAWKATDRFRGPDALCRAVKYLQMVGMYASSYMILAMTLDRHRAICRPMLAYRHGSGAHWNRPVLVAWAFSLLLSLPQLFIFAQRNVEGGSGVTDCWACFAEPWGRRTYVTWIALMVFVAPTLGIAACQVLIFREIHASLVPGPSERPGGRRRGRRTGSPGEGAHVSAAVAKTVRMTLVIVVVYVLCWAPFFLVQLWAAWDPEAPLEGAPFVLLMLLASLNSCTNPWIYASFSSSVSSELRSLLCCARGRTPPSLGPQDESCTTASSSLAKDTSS

SMILES | k el [1] [s⁻¹] | half-life [2] [min] | Tmax [3] [min] | solubility thermodynamic at 24 h [4] [µg/mL] | AUC(0-t) [6] [ng·h/mL] | T1/2 [7] [min] | Cmax [8] [ng/mL] | pKi (Vasopressin V2 receptor) | Activity [5] | Activity [9] | Activity [10]
Cc1ccccc1C(=O)Nc1ccc(C(=O)N2CCCC(O)c3cc(Cl)ccc32)c(C)c1 (stereo not drawn) [TOLVAPTAN] | 4.72e-05 | 246 | 49.8 | 2.3 (≈ 5.12 µM) | 824 | 23 | 394 | – | Non-Toxic | Non-Toxic | –
Cc1ccccc1C(=O)Nc1ccc(C(=O)N2CCCC(NCCCc3ccncc3)c3cc(Cl)ccc32)c(C)c1 (stereo not drawn) | 0.000361 | 32 | 16.7 | 2.3 (≈ 4.06 µM) | 565 | – | 360 | – | Non-Toxic | Non-Toxic | –
Cc1ccccc1C(=O)Nc1ccc(C(=O)N2CCCC(NCCCCN3CCOCC3)c3cc(Cl)ccc32)c(C)c1 (stereo not drawn) | 3.89e-05 | 324 | 4.98 | 2.3 (≈ 3.9 µM) | 514 | – | 365 | – | Non-Toxic | Non-Toxic | –
Cc1ccccc1C(=O)Nc1ccc(C(=O)N2CCCC(NCCC(=O)N3CCOCC3)c3cc(Cl)ccc32)c(C)c1 (stereo not drawn) | 0.000667 | 17.4 | 8.4 | 2.3 (≈ 3.9 µM) | 450 | – | 783 | – | Non-Toxic | Non-Toxic | –
Cc1ccccc1C(=O)Nc1ccc(C(=O)N2CCCC(NCCCCCN3CCOCC3)c3cc(Cl)ccc32)c(C)c1 (stereo not drawn) | 2.58e-05 | 450 | 8.4 | 2.3 (≈ 3.81 µM) | 450 | – | 157 | – | Non-Toxic | Non-Toxic | –
Cc1ccccc1C(=O)Nc1ccc(C(=O)N2CCCC(NCCN3CCOCC3)c3cc(Cl)ccc32)c(C)c1 (stereo not drawn) | 0.000417 | 28.2 | 4.98 | 2.3 (≈ 4.1 µM) | 544 | – | 679 | – | Non-Toxic | Non-Toxic | –
CCN(CC)CCCNC1CCCN(C(=O)c2ccc(NC(=O)c3ccccc3C)cc2C)c2ccc(Cl)cc21 (stereo not drawn) | 8.33e-05 | 174 | 11.4 | 2.3 (≈ 4.1 µM) | 527 | – | 426 | 7.51 | Non-Toxic | Non-Toxic | –

Second part, led by results:

k el [1] [s⁻¹] | half-life [2] [min] | Tmax [3] [min] | solubility thermodynamic at 24 h [4] [µg/mL] | AUC(0-t) [6] [ng·h/mL] | T1/2 [7] [min] | Cmax [8] [ng/mL] | pKi (Vasopressin V2 receptor) | SMILES | Activity [5] | Activity [9] | Activity [10]
2.75e-05 | 420 | 4.98 | 2.3 (≈ 3.91 µM) | 588 | – | 518 | – | Cc1ccccc1C(=O)Nc1ccc(C(=O)N2CCCC(NCCCN3CCN(C)CC3)c3cc(Cl)ccc32)c(C)c1 (stereo not drawn) | Non-Toxic | Non-Toxic | –
4.72e-05 | 258 | 15 | 2.3 (≈ 4 µM) | 817 | – | 453 | – | Cc1ccccc1C(=O)Nc1ccc(C(=O)N2CCCC(NCCCN3CCOCC3)c3cc(Cl)ccc32)c(C)c1 (stereo not drawn) | Non-Toxic | Non-Toxic | Non-Toxic
5e-05 | 234 | 19.8 | 2.3 (≈ 4.01 µM) | 1110 | – | 419 | – | Cc1ccccc1C(=O)Nc1ccc(C(=O)N2CCCC(NCCCN3CCCCC3)c3cc(Cl)ccc32)c(C)c1 (stereo not drawn) | Non-Toxic | Non-Toxic | –
